Results reported in patent publication US11413261B2, “Pharmaceutical composition for treating cancer comprising lactate metal salt” (METIMEDI PHARMACEUTICALS CO., LTD, priority 2014, dated 2022).

Legend:
[1] = test system: colorectal cancer cell line HCT-116; assay: Cell migration of colorectal cancer cell line (culture insert); assay type: cell-based; details: 2.5 mM, 24 hours, then 12 hours after insert removal
Description: A colorectal cancer cell line HCT-116 with the cell number of 4×10^5 cells was inoculated into a culture container at the center of which an ibidi culture insert having a thickness of 500 μm was placed, and treated with 2.5 mM calcium lactate and then cultured for 24 hours. Then, the insert was removed and further cultured for 12 hours to analyze migration of the cancer cells to a site where the insert was removed using a JuLi Br, Live cell analyzer (NanoEnTek Inc., South Korea) (FIG. 18). In this case, a colorectal cancer cell line cultured without treating with calcium lactate was used as a control group.

MDA-MB231 cell line = assay: Cell apoptosis rate by flow cytometry (FITC Annexin V / PI); assay type: cell-based; details: 2.5 mM, 24 hours (untreated 10.17%)
Description: (§1) Breast cancer cell lines (MCF-7 and MDA-MB231) were cultured for 24 hours with or without treating with 2.5 mM calcium lactate. Each of the breast cancer cell lines were treated with 5 μl of FITC Annexin V and 5 μl of PI and reacted at room temperature for 15 minutes and then, a flow cytometry analysis was conducted thereto using a FACS Calibur (BD Bioscience, USA) to evaluate staining thereof and thus measure a cancer cell apoptosis rate (FIG. 21a-21f).

MCF-7 cell line = assay: as above; assay type: cell-based; details: 2.5 mM, 24 hours (untreated 9.63%)
Description: as §1

[2] = test system: human colorectal cancer cell lines (HCT-116, HT-29, and DLD-1); assay: Viability of colorectal cancer cell lines in plate with low adhesivity; assay type: cell-based; details: HCT-116, HT-29, DLD-1, 1.5 or 2.5 mM (untreated about 5%)
Description: Human colorectal cancer cell lines (HCT-116, HT-29, and DLD-1) were inoculated into a 6-well plate with low adhesivity and then cultured treating with various concentrations (0 mM, 1.5 mM, or 2.5 mM) of calcium lactate. Then, survival rates of the cells were compared (FIG. 26).

[3] = test system: human colorectal cancer cell lines (HCT-116 and HT-29); assay: Lactate level in cancer cells (lactate assay kit); assay type: cell-based; details: 2.5 mM, medium with 3 mM or 11 mM glucose, vs untreated
Description: The cells cultured in Example 2-1 were cultured again in a medium including 3 mM (low) or 11 mM (normal) glucose. The cultured cells were disrupted by ultrasonication. The concentration of lactate included in the disrupted cells was measured using a lactate assay kit (AbCam, Cambridge, Mass.) (FIG. 3). In this case, cancer cells untreated with calcium lactate were used as control groups.

[4] = test system: human colorectal cancer cell lines (HCT-116, HT-29, and DLD-1); assay: Colony-forming ability of colorectal cancer cell lines in solid medium; assay type: cell-based; details: HCT-116, HT-29, DLD-1; with increasing concentration (0.5, 1.5, 2.5 mM), 10 days
Description: Firstly, human colorectal cancer cell lines (HCT-116, HT-29, and DLD-1) were inoculated into solid mediums including various concentrations (0 mM, 0.5 mM, 1.5 mM, or 2.5 mM) of calcium lactate and cultured for 10 days. After the completion of the culture, the cells were immobilized and stained with hematoxylin. Then, the number of cancer cells formed into colonies was counted (FIG. 23).

PARP = PARP protein expression in HCT-116 treated with calcium lactate, IS, CA alone or in combination; assay type: cell-based, human; details: 5 mM calcium lactate alone, 24 hours
Description: The protein expression levels of PARP expressed in the colorectal cancer cell line were compared (FIG. 9) after a human colorectal cancer cell line (HCT-116) was treated individually or in combination for 24 hours with 5 mM calcium lactate, 5-indane sulfornamide (IS) as an inhibitor of carbonic anhydrase, or cinnamic acid (CA) as an inhibitor of MCT-4 which is a pathway of lactate. In this case, an untreated cancer cell line was used as a control group.

[5] = test system: human colorectal cancer cell line HCT-116; details: 5 mM calcium lactate individually, 10 days
cancer cell = assay: Comparison of lactate delivery efficiency to a cancer cell; assay type: cell-based; details: compared with sodium lactate and potassium lactate
[6] = test system: LDH-B (lactate dehydrogenase B); assay: LDH-B protein expression (immunofluorescence); assay type: cell-based, human; details: HCT-116 and HT-29; 2.5 mM, 24 hours
Description: Human colorectal cancer cell lines (HCT-116 and HT-29) were treated with 2.5 mM calcium lactate and cultured for 24 hours. The cultured cancer cell lines were immobilized with 4% paraformaldehyde and treated with an anti-rabbit LDHB antibody for 15 hours. Then, the cancer cell lines were washed with PBS and treated with a secondary antibody conjugated with biotin and then reacted at room temperature for 2 hours. Then, the cancer cell lines were treated with streptavidine conjugated with FITC to perform fluorescence staining and then photographed with a fluorescence microscope (FIG. 11a-11c). In this case, cancer cell lines cultured under normoxia condition (N-control) or hypoxia condition (H-control) were used as control groups, and a nucleus of each cell was stained using DAPI. Further, the photos were analyzed using the Xenogen In Vivo Imaging System 100 series and Living imaging software (Xenogen).

[7] = test system: human colorectal cancer cell lines (HCT-116 and HT-29); assay: pH inside and outside cancer cell; assay type: cell-based; details: 2.5 mM
Description: Specifically, with the cells cultured in Example 2-1, an extracellular pH was measured with a pH meter from the medium for the cells treated with calcium lactate and then cultured and an intracellular pH was measured with a pH detection kit (Life Technologies, CA) from the cells treated with calcium lactate and then cultured (FIG. 4). In this case, cancer cells untreated with calcium lactate were used as control groups.

[8] = test system: human colorectal cancer cell lines (HT-29 and HCT-116); assay: Colony-forming ability, anticancer drug in combination with calcium lactate (6-well plates); assay type: cell-based; details: 2.5 mM calcium lactate alone, vs control
Description: Human colorectal cancer cell lines (HT-29 and HCT-116) with the cell number of 1×10^3 cells were seeded into an RPMI1640 medium in each of 6-well plates. After one day, the medium was replaced with fresh medium and the cells were treated with 2.5 mM calcium lactate or 1 μM, 2.5 μM, and 5 μM Imatinib alone or treated with various concentrations (1 μM, 2.5 μM, and 5 μM) of Imatinib in combination with 2.5 mM calcium lactate. Then, the colony-forming abilities of the cells were compared. In this case, human colorectal cancer cell lines (HT-29 and HCT-116) untreated with any drug were used as control groups (FIGS. 38a, 38b, 39a and 39b).
Human colorectal cancer cell lines (HT-29 and HCT-116) with the cell number of 1×10^3 cells were seeded into an RPMI1640 medium in each of 6-well plates. After one day, the medium was replaced with fresh medium and the cells were treated with 2.5 mM calcium lactate or 2.5 μM, 5 μM, and 10 μM 5-FU alone or treated with various concentrations (2.5 μM, 5 μM, and 10 μM) of 5-FU in combination with 2.5 mM calcium lactate. Then, the colony-forming abilities of the cells were compared. In this case, human colorectal cancer cell lines (HT-29 and HCT-116) untreated with any drug were used as control groups (FIGS. 40a, 40 b, 41a and 41b).

## CC(O)C(=O)[O-].CC(O)C(=O)[O-].[Ca+2] (stereo not shown) [calcium lactate]
[1]
  cell migration: decreased
MDA-MB231 cell line
  cell apoptosis rate: 13.05%
MCF-7 cell line
  cell apoptosis rate: 33.8%
[2]
  cell apoptosis rate: about 90%
[3]
  concentration of lactate in cancer cells: increased
[4]
  number of colonies: decreased
PARP
  protein expression levels of PARP: decreased
[5]
  survival rate: about 60%
Cancer cell
  lactate delivery efficiency to a cancer cell: highest lactate delivery efficiency
[6]
  protein expression levels of LDH-B: sharply increased
[7]; pH detection kit
  intracellular pH: decreased to acidic condition
[7]; pH meter, medium
  extracellular pH: not changed
[8]
  colony-forming ability: suppressed
